According to PubChem BioAssay AID256 (DTP/NCI, 2004):
Values joined by “and” are separate entries in the source; they are usually repeats but may differ in a detail not shown here. Equal values may be shown once. Inconclusive results and toxic doses are left out.

Test system: CD2F1 mice, L1210 leukemia ip, survival T/C
Assay: NCI In Vivo Anticancer Drug Screen. Data for tumor model L1210 Leukemia (intraperitoneal) in CD2F1 (CDF1) mice
Conditions: higher = longer survival
How it was run: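 Tumor-bearing mice (transplanted tumor) were split into treated and vehicle control groups, and the measured endpoint of each treated group was divided by that of its vehicle controls.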

[1] = endpoint: mean survival time, dose: 100.0 mg/kg/injection, schedule: Q04DX002 (ip), vehicle: saline with Tween-80
[2] = endpoint: mean survival time, dose: 200.0 mg/kg/injection, schedule: Q04DX002 (ip), vehicle: saline with Tween-80
[3] = endpoint: mean survival time, dose: 400.0 mg/kg/injection, schedule: Q04DX002 (ip), vehicle: saline with Tween-80
[4] = endpoint: mean survival time, dose: 100.0 mg/kg/injection, schedule: Q01DX009 (ip), vehicle: saline with Tween-80
[5] = endpoint: mean survival time, dose: 200.0 mg/kg/injection, schedule: Q01DX009 (ip), vehicle: saline with Tween-80
[6] = endpoint: mean survival time, dose: 400.0 mg/kg/injection, schedule: Q01DX009 (ip), vehicle: saline with Tween-80
[7] = endpoint: mean survival time, dose: 100.0 mg/kg/injection, schedule: Q04DX003 (ip), vehicle: saline with Tween-80
[8] = endpoint: mean survival time, dose: 200.0 mg/kg/injection, schedule: Q04DX003 (ip), vehicle: saline with Tween-80
[9] = endpoint: mean survival time, dose: 50.0 mg/kg/injection, schedule: Q01DX009 (ip), vehicle: saline with Tween-80
[10] = endpoint: median survival time, dose: 12.5 mg/kg/injection, schedule: Q04DX003 (ip), vehicle: saline
[11] = endpoint: median survival time, dose: 25.0 mg/kg/injection, schedule: Q04DX003 (ip), vehicle: saline
[12] = endpoint: median survival time, dose: 50.0 mg/kg/injection, schedule: Q04DX003 (ip), vehicle: saline
[13] = endpoint: mean survival time, dose: 400.0 mg/kg/injection, schedule: Q04DX003 (ip), vehicle: saline with Tween-80

With CN1C2CCC1C(CO)C(O)C2 (stereo not drawn) the T/C (endpoint: mean survival time, dose: 100.0 mg/kg/injection, schedule: Q04DX002 (ip), vehicle: saline) was 105 % of control, the T/C (endpoint: mean survival time, dose: 200.0 mg/kg/injection, schedule: Q04DX002 (ip), vehicle: saline) was 94 % of control and the T/C (endpoint: mean survival time, dose: 400.0 mg/kg/injection, schedule: Q04DX002 (ip), vehicle: saline) was 97 % of control.

For CO[C@]12[C@@H](COC(N)=O)C3=C(C(=O)C(C)=C(NCc4ccco4)C3=O)N1C[C@@H]1[C@H]2N1C (stereo partly drawn), the T/C (endpoint: mean survival time, dose: 1.5 mg/kg/injection, schedule: Q01DX001 (ip), vehicle: distilled water + Tween-80) was 104 % of control, the T/C (endpoint: mean survival time, dose: 3.0 mg/kg/injection, schedule: Q01DX001 (ip), vehicle: distilled water + Tween-80) was 103 % of control and 104 % of control and the T/C (endpoint: mean survival time, dose: 6.0 mg/kg/injection, schedule: Q01DX001 (ip), vehicle: distilled water + Tween-80) was 110 % of control and 111 % of control. The T/C (endpoint: mean survival time, dose: 12.0 mg/kg/injection, schedule: Q01DX001 (ip), vehicle: distilled water + Tween-80) was 122 % of control and the T/C (endpoint: mean survival time, dose: 36.0 mg/kg/injection, schedule: Q01DX001 (ip), vehicle: distilled water + Tween-80) was 121 % of control.

With CC(C)(C)c1cc2c3c(c1)Oc1cc(C(C)(C)C)cc4c1C3(O)c1c(cc(C(C)(C)C)cc1O4)O2 the T/C (endpoint: median survival time, dose: 3.12 mg/kg/injection, schedule: Q01DX009 (ip), vehicle: Klucel (hydroxypropylcellulose) (HPC)) was 107 % of control, the T/C (endpoint: median survival time, dose: 6.25 mg/kg/injection, schedule: Q01DX009 (ip), vehicle: Klucel (hydroxypropylcellulose) (HPC)) was 112 % of control and the T/C (endpoint: median survival time, dose: 12.5 mg/kg/injection, schedule: Q01DX009 (ip), vehicle: Klucel (hydroxypropylcellulose) (HPC)) was 104 % of control.

For O=c1c([N+](=O)[O-])c[nH]c2ccccc12, the T/C [1] was 95 % of control, the T/C [2] was 95 % of control and the T/C [3] was 103 % of control.

In the case of N#C/C(=C\c1c(Cl)cccc1Cl)c1ccc([N+](=O)[O-])cc1, the T/C [4] is reported as 97 % of control, the T/C [5] is reported as 88 % of control and the T/C [6] is reported as 91 % of control.

For [Cl][Pt+2][Cl].[NH-]CCc1ccccc1.[NH-]CCc1ccccc1, the T/C (endpoint: mean survival time, dose: 12.5 mg/kg/injection, schedule: Q04DX003 (ip), vehicle: saline with Tween-80) was 103 % of control, the T/C (endpoint: mean survival time, dose: 25.0 mg/kg/injection, schedule: Q04DX003 (ip), vehicle: saline with Tween-80) was 106 % of control and the T/C (endpoint: mean survival time, dose: 50.0 mg/kg/injection, schedule: Q04DX003 (ip), vehicle: saline with Tween-80) was 106 % of control. For the same molecule, the T/C [7] was 103 % of control and the T/C [8] was 117 % of control.

In the case of CCCCCCCCCCCCCCOc1ccc(Cl)cc1, the T/C [1] is reported as 87 % of control and the T/C [2] is reported as 87 % of control.

CCC1(O)CC2CN(CCc3c([nH]c4ccccc34)C(C(=O)OC)(c3cc4c(cc3OC)N(C)C3C(O)(C(=O)NCCO)C(O)C5(CC)C=CCN6CCC43C65)C2)C1 (stereo not drawn) was tested, and the T/C (endpoint: mean survival time, dose: 0.36 mg/kg/injection, schedule: Q01DX009 (ip), vehicle: water) was 110 % of control, the T/C (endpoint: mean survival time, dose: 0.52 mg/kg/injection, schedule: Q04DX003 (ip), vehicle: water) was 108 % of control and the T/C (endpoint: mean survival time, dose: 0.86 mg/kg/injection, schedule: Q04DX003 (ip), vehicle: water) was 119 % of control. The T/C (endpoint: mean survival time, dose: 1.44 mg/kg/injection, schedule: Q04DX003 (ip), vehicle: water) was 118 % of control and the T/C (endpoint: mean survival time, dose: 2.4 mg/kg/injection, schedule: Q04DX003 (ip), vehicle: water) was 113 % of control.

For CCOC(=O)CSCc1ccc(C(C)(C)C)cc1, the T/C (endpoint: mean survival time, dose: 100.0 mg/kg/injection, schedule: Q01DX001 (ip), vehicle: saline) was 96 % of control, the T/C (endpoint: mean survival time, dose: 200.0 mg/kg/injection, schedule: Q01DX001 (ip), vehicle: saline) was 98 % of control and the T/C (endpoint: mean survival time, dose: 400.0 mg/kg/injection, schedule: Q01DX001 (ip), vehicle: saline) was 93 % of control.

With N#CCc1ccccc1 the T/C (endpoint: mean survival time, dose: 10.0 mg/kg/injection, schedule: Q01DX001 (ip), vehicle: saline) was 105 % of control and the T/C (endpoint: mean survival time, dose: 20.0 mg/kg/injection, schedule: Q01DX001 (ip), vehicle: saline) was 105 % of control.

With Cc1c(F)cccc1[N+](=O)[O-] the T/C [9] was 101 % of control, the T/C [4] was 104 % of control and the T/C [5] was 98 % of control.

CC(=O)OCC(C(=O)OC1CC2C3OC3C(C1)N2C)c1ccccc1 (stereo not drawn) was tested, and the T/C [10] was 100 % of control, the T/C [11] was 100 % of control and the T/C [12] was 88 % of control. The T/C (endpoint: median survival time, dose: 100.0 mg/kg/injection, schedule: Q04DX003 (ip), vehicle: saline) was 88 % of control.

In the case of CN(Cc1ccc(Cl)cc1)N=Nc1ccc(C#N)cc1, the T/C [4] is reported as 98 % of control, the T/C [5] is reported as 107 % of control and the T/C [6] is reported as 93 % of control.

In the case of O=C(O)C(O)C(O)C(OC1OC(CO)C(O)C(O)C1O)C(O)CO.[Br][Pt].[NH-]C1CCCCC1[NH-] (stereo not drawn), the T/C (endpoint: median survival time, dose: 6.25 mg/kg/injection, schedule: Q04DX003 (ip), vehicle: saline) is reported as 158 % of control, the T/C [10] is reported as 175 % of control and the T/C [11] is reported as 163 % of control and 212 % of control. The T/C [12] was 178 % of control and 200 % of control.

CC(C#N)(Nc1ccccc1)c1ccco1 (stereo not drawn) was tested, and the T/C (endpoint: mean survival time, dose: 6.25 mg/kg/injection, schedule: Q01DX009 (ip), vehicle: other) was 102 % of control, the T/C (endpoint: mean survival time, dose: 6.25 mg/kg/injection, schedule: Q04DX003 (ip), vehicle: other) was 94 % of control and the T/C (endpoint: mean survival time, dose: 12.5 mg/kg/injection, schedule: Q01DX009 (ip), vehicle: other) was 100 % of control. The T/C (endpoint: mean survival time, dose: 12.5 mg/kg/injection, schedule: Q04DX003 (ip), vehicle: other) was 95 % of control, the T/C (endpoint: mean survival time, dose: 25.0 mg/kg/injection, schedule: Q01DX009 (ip), vehicle: other) was 94 % of control and the T/C (endpoint: mean survival time, dose: 25.0 mg/kg/injection, schedule: Q04DX003 (ip), vehicle: other) was 106 % of control. The T/C (endpoint: mean survival time, dose: 100.0 mg/kg/injection, schedule: Q01DX009 (ip), vehicle: other) was 90 % of control, the T/C (endpoint: mean survival time, dose: 100.0 mg/kg/injection, schedule: Q04DX003 (ip), vehicle: saline) was 103 % of control and the T/C (endpoint: mean survival time, dose: 200.0 mg/kg/injection, schedule: Q01DX009 (ip), vehicle: other) was 94 % of control. The T/C (endpoint: mean survival time, dose: 200.0 mg/kg/injection, schedule: Q04DX003 (ip), vehicle: saline) was 101 % of control and the T/C (endpoint: mean survival time, dose: 400.0 mg/kg/injection, schedule: Q04DX003 (ip), vehicle: saline) was 94 % of control.

COC(=O)c1cc(Cl)c(C(=O)OC)cc1Cl was tested, and the T/C (endpoint: mean survival time, dose: 100.0 mg/kg/injection, schedule: Q01DX009 (ip), vehicle: Klucel (hydroxypropylcellulose) (HPC)) was 92 % of control, the T/C (endpoint: mean survival time, dose: 200.0 mg/kg/injection, schedule: Q01DX009 (ip), vehicle: Klucel (hydroxypropylcellulose) (HPC)) was 97 % of control and the T/C (endpoint: mean survival time, dose: 400.0 mg/kg/injection, schedule: Q01DX009 (ip), vehicle: Klucel (hydroxypropylcellulose) (HPC)) was 102 % of control.

CC12CC(c3ccccc3)C(C)(C(c3ccccc3)=C1c1ccccc1)C2(O)c1ccccc1 (stereo not drawn) was tested, and the T/C [1] was 94 % of control, the T/C [2] was 86 % of control and the T/C [3] was 94 % of control.

For c1cc(Oc2ccc3ccncc3c2)c2ccncc2c1, the T/C [7] was 95 % of control, the T/C [8] was 100 % of control and the T/C [13] was 101 % of control.

With O=[N+]([O-])c1ccc(C2=CSc3ccccc3N2)cc1 the T/C [1] was 104 % of control, the T/C [2] was 108 % of control and the T/C [3] was 104 % of control.

In the case of CCOc1c[n+](C)c(C)s1, the T/C (endpoint: mean survival time, dose: 50.0 mg/kg/injection, schedule: Q01DX001 (ip), vehicle: carboxymethylcellulose (CMC)) is reported as 94 % of control, the T/C (endpoint: mean survival time, dose: 100.0 mg/kg/injection, schedule: Q01DX001 (ip), vehicle: carboxymethylcellulose (CMC)) is reported as 92 % of control and the T/C (endpoint: mean survival time, dose: 200.0 mg/kg/injection, schedule: Q01DX001 (ip), vehicle: carboxymethylcellulose (CMC)) is reported as 103 % of control.

O=C(Nc1cc(Cl)ccc1Cl)c1ccc(Cl)cc1Cl was tested, and the T/C [9] was 92 % of control, the T/C [4] was 87 % of control and the T/C [7] was 90 % of control. For the same molecule, the T/C [5] was 92 % of control and the T/C [8] was 88 % of control.

In the case of CN(C)c1ccc(/C=N/NC(=O)CNC(=O)c2ccccc2)cc1, the T/C [4] is reported as 95 % of control, the T/C [5] is reported as 89 % of control and the T/C [6] is reported as 89 % of control.

With C/C=C/CC(C)C(O)C1C(=O)NC(CC)C(=O)N(C)CC(=O)N(C)C(CC(C)C)C(=O)NC(C(C)C)C(=O)N(C)C(CC(C)C)C(=O)NC(C)C(=O)NC(C)C(=O)N(C)C(CC(C)C)C(=O)N(C)C(CC(C)C)C(=O)N(C)C(C(C)C)C(=O)N1C (stereo not drawn) the T/C (endpoint: median survival time, dose: 25.0 mg/kg/injection, schedule: Q01DX009 (ip), vehicle: Klucel (hydroxypropylcellulose) (HPC)) was 102 % of control, the T/C (endpoint: median survival time, dose: 50.0 mg/kg/injection, schedule: Q01DX009 (ip), vehicle: Klucel (hydroxypropylcellulose) (HPC)) was 107 % of control and the T/C (endpoint: median survival time, dose: 100.0 mg/kg/injection, schedule: Q01DX009 (ip), vehicle: Klucel (hydroxypropylcellulose) (HPC)) was 106 % of control.

In the case of Oc1ccc(N=Nc2ccccn2)c(O)c1, the T/C [7] is reported as 97 % of control, the T/C [8] is reported as 112 % of control and the T/C [13] is reported as 93 % of control.
